Data published in patent US20160168140A1, “HETEROCYCLIC COMPOUNDS AS ANTIBIOTIC POTENTIATORS” (priority 2014, published 2016).

What was measured:
[1] = system: panel of Gram-negative bacteria with different colistin susceptibilities; test: Fractional inhibitory concentration index (FICI) checkerboard assay with colistin; assay type: cell-based; conditions: for FICI Values of Colistin and Potentiator in Resistant Bacteria: FICI values of ≦0.5 indicate synergy
Description: The fractional inhibitory concentration index (FICI) was determined in combination with colistin using the broth microdilution susceptibility test method as described by the CLSI (Methods for Dilution Antimicrobial Susceptibility Tests for Bacteria That Grow Aerobically; Approved Standard-Ninth Edition. 2012. CLSI document M07-A9. CLIS, 940 West Valley Road, Suite 1400, Wayne, Pa. 19087-1898 USA). This checkerboard assay was set up with decreasing concentrations of colistin across the plate from left to right and decreasing concentrations of potentiator from top to bottom. The FICI values were then calculated using the methods of Lorian et al. (Antibiotics in Laboratory Medicine—Fifth Edition. 2005. Lippincott, Williams, & Wilkins, Philadelphia, Pa.). A panel of Gram-negative bacteria with different colistin susceptibilities were tested.
Each of the tested compounds synergized with colistin in the three species of colistin-resistant bacteria tested.

[2] = system: Acinetobacter baumannii (Ab23); test: MIC shift assay of antibiotics (broth microdilution); assay type: cell-based; conditions: fold shift of colistin MIC, nc = no changeover or no shift
In short: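 Broth microdilution MIC shift assay against Acinetobacter baumannii. Overnight cultures in cation-adjusted Mueller Hinton broth at 37° C. were sub-cultured 1:200, grown to OD600=0.5 to 0.8, diluted to OD600=0.01, and added (50 μL) to wells holding 50 μL of 2× antibiotic stocks for a starting OD600 of 0.005. After 18 to 20 h at 37° C. with shaking, OD600 was read to obtain MICs.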

[3] = colistin-resistant A. baumannii
[4] = colistin-resistant K. pneumoniae
[5] = colistin-resistant P. aeruginosa

Structure (SMILES) | colistin MIC shift, Ab23 at (compd concentration) ([2]; compound concentration 10 μM) [x] | colistin MIC shift, Ab23 at (compd concentration) ([2]; compound concentration 4 μM) | further results
CN(C)CCCNc1nc(-c2cccc(-c3cc(C(F)(F)F)ccc3F)c2)nc2c(C(F)(F)F)cccc12 [IV] |  |  | MIC Shift of Colistin and Potentiator in Resistant Bacteria [1, 3]: 133 x; FICI Values of Colistin and Potentiator in Resistant Bacteria [1, 3]: 0.24; MIC Shift of Colistin and Potentiator in Resistant Bacteria [1, 4]: 512 x; FICI Values of Colistin and Potentiator in Resistant Bacteria [1, 4]: 0.21; MIC Shift of Colistin and Potentiator in Resistant Bacteria [1, 5]: 33 x; FICI Values of Colistin and Potentiator in Resistant Bacteria [1, 5]: 0.27
CCN(CC)CCCC(C)Nc1nc(/C=C/c2ccc(C(F)(F)F)cc2)nc2cc(Cl)ccc12 (racemic) [compound 307] |  |  | colistin MIC shift, Ab23 at (compd concentration) ([2]; compound concentration 8 μM): 4x
COc1cc(-c2nc(NCCCN(C)C)c3cccc(C)c3n2)cc(C(F)(F)F)c1 [compound 504] |  |  | colistin MIC shift, Ab23 at (compd concentration) ([2]; compound concentration 8 μM): 16x
CN(C)CCCNc1nc(/C=C/c2ccc(Br)cc2)nc2cc(Cl)ccc12 [compound 301] |  |  | colistin MIC shift, Ab23 at (compd concentration) ([2]; compound concentration 8 μM): 8x
Clc1ccc(/C=C/c2c[nH]c3cc(Br)ccc23)cc1Cl [compound 367] |  | 16-32x | 
Cc1cccc2c(NCCCN(C)C)nc(-c3ccc4cc(Cl)c(Cl)cc4c3)nc12 [compound 444] |  | 16x | 
Cc1cccc2c(NCCCN(C)C)nc(-c3ccc(Cl)c(Cl)c3)nc12 [compound 458] | 16 |  | 
COc1ccc2[nH]cc(/C=C/c3ccc(Cl)c(Cl)c3)c2c1 [compound 373] |  | 8-16x | 
FC(F)(F)c1ccc2c(-c3ccc(Cl)c(Cl)c3)n[nH]c2c1 [compound 441] |  |  | colistin MIC shift, Ab23 at (compd concentration) ([2]; compound concentration 2 μM): ≧16x
CCN(CC)CCCC(C)Nc1nc(-c2cc(N3CCOCC3)cc(C(F)(F)F)c2)nc2c(C)cccc12 (stereo not shown) [compound 500] | 4 |  | 
CN(C)CCCNc1nc(/C=C/c2ccc(Cl)c(Cl)c2)nc2c([N+](=O)[O-])cccc12 [compound 302] |  | 16x | 
CN(C)CCCNc1nc(-c2cc(-c3ccccc3)cc(C(F)(F)F)c2)nc2c(Cl)cccc12 [compound 340] |  |  | colistin MIC shift, Ab23 at (compd concentration) ([2]; compound concentration 2 μM): 8-16x
Cc1cccc2c(NCCCN3CCN(C)CC3)nc(-c3cc(Br)cc(C(F)(F)F)c3)nc12 [compound 354] |  |  | colistin MIC shift, Ab23 at (compd concentration) ([2]; compound concentration 2 μM): 8-16x
Clc1ccc(/C=C/c2c[nH]c3ccc(Br)cc23)cc1Cl [compound 363] |  | 32-64x (4 μM); | colistin MIC shift, Ab23 at (compd concentration) ([2]; compound concentration 2 μM): ≧16x (2 μM)
Fc1ccc2c(/C=C/c3cc(Cl)ccc3Cl)c[nH]c2c1 [compound 384] |  | 8-16x | 
CCN(CC)CCCC(C)Nc1nc(-c2cn(Cc3cccc(Cl)c3)c3c(Cl)cccc23)nc2c(C)cccc12 (racemic) [compound 578] |  | 16x | 

Structure (SMILES) | colistin MIC shift, Ab23 at (compd concentration) ([2]; compound concentration 10 μM) [x] | colistin MIC shift, Ab23 at (compd concentration) ([2]; compound concentration 4 μM) | further results
Cc1ccc2[nH]cc(/C=C/c3ccc(Cl)c(Cl)c3)c2c1 [compound 370] |  | 32x | 
Cc1cccc2c(NCCCN3CCOCC3)nc(-c3cc(Br)cc(C(F)(F)F)c3)nc12 [compound 459] | 8 |  | 
O=C(Nc1cccc(C(F)(F)F)c1)c1c[nH]c2ccc(Br)cc12 [compound 428] |  |  | colistin MIC shift, Ab23 at (compd concentration) ([2]; compound concentration 8 μM): 4x
Fc1ccc2c(/C=C/c3ccc(Br)c(Br)c3)c[nH]c2c1 [compound 378] |  | 16-32 x | 
CN(C)CCCNc1nc(-c2cn(Cc3ccccc3)c3c(Cl)cccc23)nc2c(F)cccc12 [compound 565] |  | 2-4x | 
Cc1cccc2c(NCCCN(C)C)nc(-c3cn(Cc4ccccc4)c4ccc(Cl)cc34)nc12 [compound 587] | 16 |  | 
CN(C)CCCNc1nc(-c2csc3ccc(Cl)cc23)nc2c(Cl)cccc12 [compound 592] |  | 32x | 
Fc1cccc(/C=C/c2c[nH]c3cc(F)ccc23)c1 [compound 399] | 8 |  | 
Cc1cc(Br)cc2c(NCCCN(C)C)nc(-c3cc(Br)cc(C(F)(F)F)c3)nc12 [524g] |  | 16x | 
CN(C)CCCNc1nc(/C=C/c2ccc(F)c(F)c2)nc2c(C(F)(F)F)cccc12 [compound 330] |  | 2x | 
Fc1cccc2[nH]cc(/C=C/c3ccc(Cl)c(Cl)c3)c12 [compound 372] |  | 8-32x | 
CCN(CC)CCCC(C)Nc1nc(-c2cn(Cc3ccccc3)c3c(Cl)cccc23)nc2c(-c3ccncc3)cccc12 (racemic) [compound 570] | 2 |  | 
O=[N+]([O-])c1ccc2[nH]cc(/C=C/c3ccc(Cl)c(Cl)c3)c2c1 [compound 379] |  | 8x | 
CCN(CC)CCCC(C)Nc1nc(-c2cccc(-c3cccc(Cl)c3Cl)c2)nc2c(C)cccc12 (stereo not shown) [compound 483] |  | 16x | 
Cc1cccc2c(NCCCN(C)C)nc(-c3cn(Cc4ccc(Cl)cc4)c4c(Cl)cccc34)nc12 [compound 577] |  | 16x | 

Continued, in another order:

colistin MIC shift, Ab23 at (compd concentration) ([2]; compound concentration 10 μM) [x] | colistin MIC shift, Ab23 at (compd concentration) ([2]; compound concentration 4 μM) | Structure (SMILES) | further results
1 |  | FC(F)(F)c1ccc2c(-c3ccc(Cl)c(Cl)c3)nn(Cc3ccc(Cl)cc3)c2c1 [compound 542] | 
 | 32x | FC(F)(F)c1cccc2[nH]cc(/C=C/c3ccc(Cl)c(Cl)c3)c12 [compound 371] | 
4 |  | FC(F)(F)c1ccc2c(-c3cccc(-c4cc(Cl)cc(Cl)c4)c3)n[nH]c2c1 [compound 530] | 
 | 16x | Cc1cccc2c(NCCCN(C)C)nc(-c3cc(-c4ccc(C(F)(F)F)cc4)cc(C(F)(F)F)c3)nc12 [compound 496] | 
 | 8x | CCN(CC)CCCC(C)Nc1nc(-c2cccc(-c3cc(C(F)(F)F)ccc3F)c2)nc2cc(C(F)(F)F)ccc12 (stereo not shown) [compound 481] | 
 | 4x | CN(C)CCCNc1nc(-c2cccc(-c3ccccc3)c2)nc2c(Cl)cccc12 [compound 486] | 
1 |  | Cc1cccc(-c2n[nH]c3cc(F)ccc23)c1 [compound 535] | 
32 |  | Fc1ccc(-c2n[nH]c3cc(C(F)(F)F)ccc23)cc1C(F)(F)F [compound 549] | 
 | 8x | Fc1cc(C(F)(F)F)ccc1-c1n[nH]c2cc(C(F)(F)F)ccc12 [compound 544] | 
4 |  | CN(C)CCCNc1nc(-c2cc(Br)cc(C(F)(F)F)c2)nc2c(F)cccc12 [compound 503] | 
 | 16x | O=C(c1ccc(Cl)c(Cl)c1)n1nc(-c2ccc(Cl)c(Cl)c2)c2ccc(C(F)(F)F)cc21 [compound 392, (3,4-dichlorophenyl)(3-(3,4-dichlorophenyl)-6-(trifluoromethyl)-1H-indazol-1-yl)methanone] | 
 | 16x | CCN(CC)CCCC(C)Nc1nc(-c2cccc(-c3cc(C(F)(F)F)ccc3F)c2)nc2c(C)cccc12 (stereo not shown) [compound 473] | 
8 |  | Fc1cc(-c2cccc(-c3n[nH]c4cc(C(F)(F)F)ccc34)c2)ccc1C(F)(F)F [compound 528] | 
 | 4x | CN(C)CCCNc1nc(-c2cccc(-c3ccccc3)c2)nc2cc(C(F)(F)F)ccc12 [compound 480] | 
1 |  | FC(F)(F)c1ccc2c(-c3ccc(Cl)c(Cl)c3)nn(Cc3cccc(Cl)c3)c2c1 [compound 545] | 
 | 16x | Fc1ccc2c(/C=C/c3cc(C(F)(F)F)cc(C(F)(F)F)c3)c[nH]c2c1 [compound 386] | 
 | 8x | Cc1cc(-c2nc(NCCCN(C)C)c3cccc(C)c3n2)cc(C(F)(F)F)c1 [compound 507] | 
 | 16x | CN(C)CCCNc1nc(-c2cc(-c3ccccc3)cc(C(F)(F)F)c2)nc2c(C(F)(F)F)cccc12 [compound 514] | 
1 |  | COC(=O)c1cc(-c2n[nH]c3cc(C(F)(F)F)ccc23)cc(C(F)(F)F)c1 [compound 553] | 
8 |  | FC(F)(F)c1cccc(-c2cccc(-c3n[nH]c4cc(C(F)(F)F)ccc34)c2)c1 [compound 529] | 
1 |  | FC(F)(F)c1cccc(-c2cccc(-c3n[nH]c4ccc(Cl)cc34)c2)c1 [compound 525] | 
